Measured values published in US4020076A, “Novel phosphoryloxy-thiazoles” (priority 1974, dated 1977).
Where two headings read alike, the source gives them in different places.

How the values were obtained:
[1] = system: Blattella germanica; test: Topical application activity against Blattella germanica; assay type: in vivo; settings: read-out: percent of mortality
Description: b. Activity against Blattella germanica
This test was a topical application in which adult male Blattella germanica received 2 microliters of an acetone solution of the test products between the second and third pair of paws. After this treatment, the test insects were held in a dim light at 20° C and were fed. The results expressed as percent of mortality in Table II were read 24 and 48 hours and 5 days after the treatment.

[2] = system: Meloidogynes spec; test: Nematocidal activity against Meloidogynes spec (tomato root galls); assay type: in vivo; settings: 250 Kg/ha
Description: a. Activity against Meloidogynes spec
A volume of about 3 liters of dirt infested with Meloidogynes spec was placed in a plastic sack. Nematocidal treatments are considered effective to a depth of 30 cm, a volume of 3 liters of dirt corresponding to a surface area of 100 cm^ 2 or 10^-^6 ha (since 100 cm^ 2 × 30 cm = 3000 ml or 3 liters). Each volume of infested dirt received 100 ml of an aqueous suspension containing 0.250 g of the test product (corresponding to 250 Kg/ha) and the controls received only 100 ml of water. The plastic sacks containing the dirt were immediately sealed after the treatment and then agitated to obtain a good distribution of the product. Two weeks after the treatment, the sacks were opened and the dirt was used to plant 3 tomato plants of St. Pierre variety. The plants used were raised in the greenhouse with dirt sterilized with heat to obtain plants free of nematodes. Three plants were used for each test which was run 6 times for each treatment. Two months after planting the tomatoes were removed from the dirt and the efficacy was determined by counting the number of galls observed on the roots. A correlation between the population of Meloidogynes in the pot and the number of galls exists.

CCOc1nc(OP(=S)(OC)OC)c(C#N)s1 [Compound C, 2-ethoxy-4-dimethoxythiophosphoryloxy-5-cyano-thiazole]
mortality at 312.5 ppm ([1]; 24 H): 80% | mortality at 625 ppm ([1]; 24 H): 100% | mortality at 1250 ppm ([1]; 24 H): 100% | mortality at 312.5 ppm ([1]; 48 H): 80% | mortality at 625 ppm ([1]; 48 H): 100% | mortality at 1250 ppm ([1]; 48 H): 100% | mortality at 312.5 ppm ([1]; 120 h, 5 Days): 80% | mortality at 625 ppm ([1]; 120 h, 5 Days): 100% | mortality at 1250 ppm ([1]; 120 h, 5 Days): 100% | Relative efficacity in % as compound to controls [2]: 67.4% | Number of galls per foot ([2]; control 44.4): 32.77 | Total number of galls ([2]; control 222): 295
